Results from patent US20210290597A1, “METHOD OF TREATING A CONDITION ASSOCIATED WITH NEURODEGENERATION USING INHIBITORS OF OAT3” (Neuropore Therapies, Inc., priority 2018, published 2021).

Legend:
OAT3 = target: T1, OAT3 (Homo sapiens, UniProt Q8TCC7); assay: Further OAT3 uptake inhibition assay (Table 2); type: cell-based; settings: human, MDCK-II cells expressing human OAT3, probe 10 μM PAH (p-aminohippurate); compound 1 μM; PAH 10 μM; mean and SD of triplicate
T1 construct: expressed in transfected cells; host or cells: MDCK-II
T1 sequence (Q8TCC7 1-542): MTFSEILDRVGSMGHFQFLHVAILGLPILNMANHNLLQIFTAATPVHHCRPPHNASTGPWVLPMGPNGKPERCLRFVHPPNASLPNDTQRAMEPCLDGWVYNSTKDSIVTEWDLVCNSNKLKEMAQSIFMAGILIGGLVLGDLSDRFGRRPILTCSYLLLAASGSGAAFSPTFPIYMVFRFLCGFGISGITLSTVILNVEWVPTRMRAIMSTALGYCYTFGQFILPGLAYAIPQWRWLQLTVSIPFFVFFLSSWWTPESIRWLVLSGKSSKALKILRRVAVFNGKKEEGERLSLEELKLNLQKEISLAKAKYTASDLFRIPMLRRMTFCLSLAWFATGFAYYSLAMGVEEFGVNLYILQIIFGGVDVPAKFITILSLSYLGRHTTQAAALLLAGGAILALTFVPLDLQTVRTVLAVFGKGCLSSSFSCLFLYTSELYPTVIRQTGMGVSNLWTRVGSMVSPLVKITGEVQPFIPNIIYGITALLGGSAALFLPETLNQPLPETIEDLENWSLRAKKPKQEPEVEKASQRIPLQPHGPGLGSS
Procedure: In a further assay, the effects of several other compounds (including compounds 2, 3, and 4) were assessed against OAT3. The assay was carried out using a similar procedure as described above, using para-aminohippurate (PAH) and estrone-3-sulfate (E3S) as the substrates for measuring OAT3-mediated transport. […] MDCK-II cells were grown in 96-well cell culture plates, and the cell plates are maintained at 37° C. in 5% CO2 atmosphere prior to initiation of the transport experiment. MDCK-II cells were maintained in DMEM with low glucose and 10% FBS. Cells passages up to 40 are seeded at 60K±10K cells/well on 96-well, transwell membrane plates approximately 24 hours before transfection. Transport assays were carried out approximately 48 hours after transfection. Radio-labeled para-aminohippurate ([3H]-PAH) and estrone-3-sulfate (E3S) were used as substrates for measuring OAT3-mediated transport, where the transport of the substrate was determined by radiometric detection. Probenecid was used as a reference inhibitor. Transport study samples were run in triplicate.
For uptake assays, the net transporter-mediated uptake rate (V) of the substrate by each SLC transporter was calculated as follows:
Transporter-mediated uptake rate(pmol/min/cm^2)=((Cellular accumulation in cells expressing the transporter)−(Mean cellular accumulation in control cells))/Incubation time.
Percent inhibition was calculated by dividing the transporter-mediated uptake rate in presence of the test article or the reference inhibitor by the transporter-mediated uptake rate in presence of vehicle control:
Percent inhibition=100−(100×(transporter-mediated uptake rate)with inhibitor/(transporter-mediated uptake rate)vehicle control)
For uptake assays, statistical analyses using an unpaired t test was performed between transporter-mediated uptake rate or ATP-dependent transport rate of probe substrate with vehicle control and the inhibitor. A p value of <0.05 was considered statistically significant.
Table 2 summarizes the inhibitory activity of these compounds against OAT3 in the uptake of probe substrate PAH (p-aminohippurate) or E3S (estrone-3-sulfate). The percent inhibition values were determined by testing compounds at a single concentration of 1 μM with a PAH concentration of 10 μM. Data represent the mean and standard deviation of triplicate samples. The IC50 values were calculated by means of a concentration response curve with a compound concentration range of 0.03-10 μM and a probe substrate concentration of 10 μM PAH or 0.1 μM E3S. The percent inhibition at the various concentrations was run in triplicate and the IC50 value was determined by non-linear regression using GraphPad Prism.

[1] = system: microtubule-associated protein 1A/1B-light chain 3 (LC3); assay: LC3 immunolabeling, L61 ASYN transgenic mice, 1 month study; type: in vivo; settings: 1, 5 or 10 mg/kg per day i.p.
Procedure: Multiple in vivo administration studies of Compound 1 were carried out in the Line 61 (L61) mThy1-alpha-synuclein transgenic mouse model of Parkinson's disease (PD). The mThy1-alpha-synuclein transgenic mouse model overexpresses wild-type human ASYN under the Thy-1 promoter (commonly referred to as Line 61 transgenic mice; Rockenstein et al., 2002). This transgenic mouse develops extensive accumulation of alpha-synuclein (ASYN) in areas relevant to PD (Rockenstein et al., 2002; Chesselet et al., 2012; Games et al., 2013), neurodegeneration including dopaminergic neurodegeneration, reduced dopamine (DA) and TH loss in the striatum (Masliah et al., 2000; Lam et al., 2011), and motor deficits (Fleming et al., 2004). […]
Alpha-synuclein (ASYN) is a neuronal protein whose dysregulation has been implicated in the pathogenesis of PD. The effects of Compound 1 on alpha-synuclein aggregation were assessed in both L61 ASYN transgenic and non-transgenic mice in a 1 month administration study. […] At the end of one month, the mice were sacrificed, and immunohistochemical (IHC) detection of total alpha-synuclein deposits, insoluble alpha-synuclein deposits (PK+resistant), microtubule-associated protein 1A/1B-light chain 3 (LC3), and monomeric alpha-synuclein levels were assessed in the harvested brain tissues.

[2] = system: dopaminergic (DAT) transporter; assay: DAT immunolabeling in striatum, L61 ASYN transgenic mice; type: in vivo; settings: 3 months
Procedure: The harvested brain tissues were drop fixed using 4% PFA and sectioned on a vibratome, and representative sections corresponding to the striatum and cerebellum were assessed for DAT with IHC staining.
Immunolabeling studies of DAT were conducted using a monoclonal antibody (1:500; MAB369; Millipore, Temecula, Calif.) and a biotinylated secondary antibody (1:100; BA4000, Vector Labs) and analysis was performed on blindcoded sections from Line 61 transgenic and non-transgenic mice. Slides were digitized using a high resolution automated Nanozoomer slide scanner (Hamamatsu Corp.). Digitized images were analyzed using Halo (Indica Labs) image analysis software package by placing an ROI frame within the dorsal striatum and another within a separate reference brain region (for normalization of DAT signal). A thresholding algorithm was defined and then applied equally to all images to determine the average optical density of DAT immunolabeling across each ROI The results of the analysis were then exported for graphing and statistical analysis and the striatal DAT:cortical (reference region) DAT optical densities ratio was calculated for each subject.
Quantification of DAT density was carried out by calculating the immunofluorescence in striatal sections against that in cerebellum sections to derive a striatal-to-reference ratio.

inhibition at 1 μM (OAT3): 80.3%
Compound: O=S(=O)(c1ccc(-n2cn[nH]c2=S)cc1)c1ccc(Cl)c(C(F)(F)F)c1 [Compound 1, 4-(4-((4-chloro-3-(trifluoromethyl)phenyl)sulfonyl)phenyl)-2,4-dihydro-3H-1,2,4-triazole-3-thione]
levels of LC3 immunolabeling in cortex and striatum [1]: increased
striatal levels of DAT, staining intensity in representative images vs vehicle-treated L61 mice ([2]; 5 mg/kg or 10 mg/kg daily): restoring striatal levels of DAT
DAT striatal-to-reference ratio, quantification (FIG. 24) ([2]; 10 mg/kg daily): reduces the GFAP levels in a statistically significant manner
